According to patent US20250108038A1 (priority 2023, published 2025):
Like-named read-outs stand apart in the source and are kept apart here.

How the values were obtained:
[1] = Equilibrium dialysis control in DPBS and stability in DPBS, plasma and brain homogenate; type: in vitro ADME, mouse; conditions: for % Recovery / % Unbound: DPBS
Protocol: Samples of spiked plasma and blank buffer (Dulbecco's phosphate-buffered saline, DPBS) and spiked brain homogenate and blank DPBS added to opposing sides of a dialysis membrane were collected from triplicate equilibrium dialysis chambers prior to (t=0) and following 1, 2, 4 and 6 hours of incubation at 37° C. […] The LC-MS/MS method(s) for analytes (Compound I-19, Compound A and Compound B) was cross-qualified for the analysis of the DPBS samples.
A secondary stock solution of 200 μM (74.2 ug/mL) will be prepared in DMSO. This secondary stock solution will then be diluted 100-fold to 2 μM ([…]) with male CD-1 mouse plasma and brain homogenate (1:2 v/v brain:Dulbecco's phosphate buffered saline, pH 7-7.2) or buffer (DPBS).
To 2.97 mL aliquots of thawed mouse plasma or brain homogenate warmed to 37° C., 30 ul aliquots of the secondary stock solution of the test compound will be added for final concentrations of 2 μM (0.742 ug/mL). An appropriate volume of warmed buffer (DPBS) will also be spiked with the test compound at a concentration of 2 μM ([…]). Triplicate aliquots (50 μL) of each spiked plasma, brain homogenate and buffer solution will be collected prior to dialysis into labeled 1.5 mL polypropylene tubes and then stored at approximately −80° C. until bioanalysis.

CYP3A4 = CYP3A4 (Homo sapiens, UniProt P08684); conditions: for Inhibition at Highest Test Article Concentration: 3A4, at 50 μM; for IC50: pooled human liver microsomes, 30 min
[2] = dialysis time 1 h, 2 μM, 37° C.
[3] = dialysis time 2 h, 2 μM, 37° C.
[4] = dialysis time 4 h, 2 μM, 37° C.
[5] = dialysis time 6 h, 2 μM, 37° C.

Chain of CYP3A4 (P08684 whole entry): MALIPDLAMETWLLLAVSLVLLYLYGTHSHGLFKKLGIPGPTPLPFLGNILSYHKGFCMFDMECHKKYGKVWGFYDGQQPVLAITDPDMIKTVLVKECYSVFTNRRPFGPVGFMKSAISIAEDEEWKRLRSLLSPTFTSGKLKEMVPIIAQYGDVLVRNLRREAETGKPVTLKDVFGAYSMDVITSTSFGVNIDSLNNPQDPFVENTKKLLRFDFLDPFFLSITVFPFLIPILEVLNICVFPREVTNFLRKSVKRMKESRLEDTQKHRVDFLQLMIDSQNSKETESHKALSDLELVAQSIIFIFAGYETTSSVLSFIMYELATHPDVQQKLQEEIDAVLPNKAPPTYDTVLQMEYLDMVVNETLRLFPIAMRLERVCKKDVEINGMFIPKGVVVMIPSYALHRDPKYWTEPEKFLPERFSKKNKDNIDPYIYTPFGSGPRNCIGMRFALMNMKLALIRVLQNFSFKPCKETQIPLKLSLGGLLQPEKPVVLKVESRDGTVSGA

Clc1ccc(C2(OCC3OCCO3)c3ccccc3C3=NCCN32)cc1 (stereo not drawn) [Compound I-19]
Stability in DPBS, plasma and brain homogenate ([1]; 2 μM, 37° C., 6 hours): unstable in all three matrices | % unbound in DPBS ([1]; 2 μM, 6 hours of dialysis): 94.0±5.12% | % recovery, DPBS alone ([1]; 6 hours of dialysis): 20.2±0.461% | % Recovery [1, 2]: 64.7 ± 3.04% | % Unbound [1, 2]: 40.3 ± 3.69% | % Recovery [1, 3]: 55.5 ± 2.08% | % Unbound [1, 3]: 81.9 ± 5.87% | % Recovery [1, 4]: 32.6 ± 1.05% | % Unbound [1, 4]: 91.1 ± 4.19% | % Recovery [1, 5]: 20.2 ± 0.461% | % Unbound [1, 5]: 94.0 ± 5.12% | Inhibition at Highest Test Article Concentration (CYP3A4; Midazolam): 28.4 at 50 μM % | Inhibition at Highest Test Article Concentration (CYP3A4; Testosterone): 57.5 at 50 μM % | IC50 (CYP3A4; substrate midazolam): did not inhibit | IC50 (CYP3A4; substrate testosterone): did not inhibit
